# Results as given in patent US7109174B2, “Anticonvulsant derivatives useful for preventing the development of type II diabetes mellitus and syndrome X” (Ortho-McNeil Pharmaceutical, Inc., priority 2000, dated 2006).
# System: Female db/db mice
# Assay: Oral glucose tolerance test (fasted) in female db/db mice after 11 days oral dosing
# Assay type: in vivo
# Settings: for Oral Glucose Tolerance Test (fasted) Plasma Glucose: ± sem
# Procedure: Female db/db mice (C57BLK S/J-m^+/^+ Lepr^db Jackson Labs, Bar Harbor, Me.), 7–8 weeks of age, were housed four per cage in solid-bottomed shoe box cages. Room temperature was maintained at 68–72° F. and humidity at 50–65%. Room lighting was on a 12-hour light/12-hour dark cycle. The mice were maintained on NIH Rat and Mouse/Auto 6F reduced fat diet #5K52 (PMI Nutrition Int'l Inc.). Food and water were supplied ad libitum.
# Test compound and vehicle were dosed orally and prepared as suspensions in 0.5% hydroxypropylmethylcellulose (Dow Chemical, Midland, Mich.). The dosing volume was 10 mL/kg of body weight.
# Different groups of female db/db mice (7–8/group) were orally gavaged daily for 11 days with either 0.5% methylcellulose in dH2O (vehicle), topiramate at 30 or 100 mg/kg/day or 2,3:4,5-bis-O-(1-methylethylidene)-β-L-fructopyranose sulfamate (hereinafter referred to as Compound V) at 30 or 100 mg/kg/day. On day 10, the animals were fasted for 20 hours before being tested for oral glucose tolerance (OGT). On day 11, four hours after the final dose for each group, an oral glucose tolerance test (OGTT) was performed by oral glucose administration of 2 g/kg. Animals were bled through tail clip at 0 (before glucose), 30, 60 and 120 min after glucose challenge. The blood samples were collected into heparinized CB microvettes and then put on ice. The plasma samples will be assayed for plasma glucose determination by using SIGMA DIAGNOSTICS Trinder reagent (Sigma, St. Louis, Mo.). Statistical analysis was performed using the program Instat (Graphpad, Monrovia, Calif.) and performing one-way ANOVA with a Dunnett's multiple comparison test.
# Following the above described procedure, the effect of topiramate and compound V on oral glucose tolerance in female db/db mice, 7 mice/group, was determined, with results as listed in Table 9. The abbreviation N represents the number of animals per study group.
structure (smiles),measurement,setting,value
"CC1(C)O[C@H]2[C@H](CO[C@]3(COS(N)(=O)=O)OC(C)(C)O[C@H]23)O1 [Compound V, 2,3:4,5-bis-O-(1-methylethylidene)-β-L-fructopyranose sulfamate]",Oral Glucose Tolerance Test (fasted) Plasma Glucose,"30 mg/kg/day, 0 min (before glucose 2 g/kg)",221 ± 22.9 mg/dL
same,Oral Glucose Tolerance Test (fasted) Plasma Glucose,"30 mg/kg/day, 30 min after glucose 2 g/kg",441 ± 35.7 mg/dL
same,Oral Glucose Tolerance Test (fasted) Plasma Glucose,"30 mg/kg/day, 60 min after glucose 2 g/kg",244 ± 21.6 mg/dL
same,Oral Glucose Tolerance Test (fasted) Plasma Glucose,"30 mg/kg/day, 120 min after glucose 2 g/kg",213 ± 28.7 mg/dL
same,Oral Glucose Tolerance Test (fasted) Plasma Glucose,"100 mg/kg/day, 0 min (before glucose 2 g/kg)",152 ± 27.3 mg/dL
same,Oral Glucose Tolerance Test (fasted) Plasma Glucose,"100 mg/kg/day, 30 min after glucose 2 g/kg",449 ± 42.6 mg/dL
same,Oral Glucose Tolerance Test (fasted) Plasma Glucose,"100 mg/kg/day, 60 min after glucose 2 g/kg",319 ± 52.7 mg/dL
same,Oral Glucose Tolerance Test (fasted) Plasma Glucose,"100 mg/kg/day, 120 min after glucose 2 g/kg",153 ± 33 mg/dL
same,elevated blood glucose levels induced by oral glucose challenge,30 or 100 mg/kg/day,suppressed
same,fasting glucose levels,30 or 100 mg/kg/day,decreased
